Read-outs that look alike come from different tables or passages of the source.

One assay addresses CRBN (Homo sapiens, UniProt Q96SW2). Briefly: CRBN displacement assay Format 2a (fluorescence polarization, 1536-well, Envision reader). The format is binding. Particulars: for CRBN Amax* (% at 50 μM) Format 2a: greatest effect as % displacement of the reference probe at the highest concentration tested (50 μM), given where AC50 >50 μM. On the procedure: Compounds were tested in the following biochemical and cellular assays.
BodipyFL conjugated lenalidomide compound HH was used as a fluorescent probe. […] Protein and substrate were diluted in assay buffer.
The fluorescence of the Bodipy FL-based probe was excited at 480 nm and the emissions of the product were measured at 535 nm. The fluorescence in each well was excited by 30 flashes per measurement.
For the determination of AC50 values, assays were performed at room temperature in 1536-well plates with a total assay volume of 6.03 μL per well. The test compounds were dissolved and diluted in 100% DMSO. For the assays, 30 nL of DMSO or compound solution were added per well, followed by the addition of 3 μL protein solution (80 nM protein in 1× assay buffer).
The final assay concentration of the protein was nominally 40 nM. After 45 minutes of pre-incubation at room temperature, the competition for binding was started by the addition of 3 μL probe solution (10 nM probe dissolved in assay buffer). The final concentration of the probe in the assays was 5 nM. After the addition of the probe solution, the final DMSO concentration in the assay was 0.5% (v/v). The effect of the probe on the pre-established compound-protein complex equilibrium was determined after 45 minutes (t=45 min). The AC50 value was calculated from the plot of percentage of protein saturation versus the test compound concentration by a logistics fit according to: y=A^2+(A^1−A^2)/(1+(x/AC50)^p), where y is the %-saturation value at the test compound concentration, x. A^1 is the lowest saturation value, i.e., 0%, and A^2 the maximum saturation value, i.e. 100%. The exponent, p, is the Hill coefficient.

The target of a further assay is T1, BTK (Homo sapiens, UniProt Q06187).
T1 construct: the BTK open reading frame (ORF) was first shuttled from a pcDNA-DEST40-BTK vector; expressed in transfected cells; host or cells: HEK293A (Invitrogen R70507), lentiviral transduction, blasticidin selection
Briefly: BTK-GFP protein abundance flow cytometry assay in HEK293A. The format is cell-based. Particulars: 24 h. On the procedure:
Degradation of BTK, CSK, ABL2, EPHA4 and YES1 was measured in HEK293A cells (Invitrogen R70507) expressing either BTK-GFP and RFP, CSK-GFP and mCherry, GFP-ABL2 and mCherry, EPHA4-GFP and mCherry, or YES1-GFP and mCherry from a stably integrated bicistronic BTK-GFP-iresRFP, CSK-GFP-CHYSEL-mCherry, GFP-ABL2-CHYSEL-mCherry, EPHA4-GFP-CHYSEL-mCherry, or YES1-GFP-CHYSEL-mCherry construct, respectively. Reduction of the GFP signal measured by flow cytometry served as readout for BTK, CSK, ABL2, EPHA4 and YES1 degradation after degrader treatment.
The mix was incubated for another 20 min at RT and then added on 1 mL of a freshly prepared suspension of HEK293FT cells in a well of a 6-well plate (concentration 1.2×10^6 cells/mL). 1 day after transfection, the medium was replaced with 1.5 mL of complete growth medium (DMEM high Glucose+10% FCS+1% L-Glutamine+1% NEAA+1% NaPyr.). 48 h post transfection supernatant containing viral transducing particles was collected and frozen at −80° C.
Infection was performed with 90 μL of collected supernatant containing viral transducing particles in 1 mL medium including 8 µg/mL polybrene. 24 h post infection, stably transfected cells were selected with blasticidin at a concentration of 8 μg/mL referred to as stable HEK293A sensor cells.
Stable HEK293A sensor cells were maintained in complete growth medium (DMEM high Glucose+10% FCS+1% L-Glutamine+1% NEAA+1% NaPyr.) with passaging performed twice per week. On Day 0, stable HEK293A sensor cells were seeded at 10,000 cells/well in a 96-well microtiter plate in 260 μL complete medium. On Day 1, cells were treated in duplicate with 10-point 1:3 dilution series of compound using the HP D300 Digital Dispenser (Tecan). DMSO concentrations were normalized across the plate to 0.1%. On Day 2, after 24 h of incubation at 37° C., treatment media was discarded, cells rinsed with 100 μL/well PBS and then detached using 40 μL trypsin/well for 5 min. Trypsin was neutralized with 100 μL/well PBS+20% FCS). Flow cytometry was performed on the samples using the BD FACS CANTO II (Becton Dickinson). Cell identification was then performed using forward (FSC) vs. side scatter (SSC) plots. Single cell discrimination is performed using SSC-Width (SSC-W) vs. SSC-Height (SSC-H) plots. Median GFP values for 5,000 single cells are used to determine BTK levels. Median GFP values from HEK293 Å-iresRFP are used as a background signal and thus defining 0% BTK signal. Median GFP values from DMSO treated HEK293 Å-BTK-GFP-iresRFP are used to define 100% BTK signal for subsequent DC50 curves (concentration at 50% BTK degradation). GFP and RFP are read in the channels called FITC and PE, respectively.
Concentration response curves plotting relative reduction of the GFP signal (measured by flow cytometry) versus 10 compound concentrations (starting concentration 10 μM, 3 fold dilution steps) of the compounds allowed generation of DC50 values. Protein abundance measured for the second generation vectors having a chysel was done in close analogy to the above described method for measuring BTK abundance.
Table 5 columns are defined as follows: DC50 refers to the concentration at which 50% maximal degradation was observed; deg Amax is the extent of degradation and the value refers to the % protein remaining at the concentration at which maximum degradation is seen.

Where [1] appears, read: concentration at which 50% of reference probe Compound HH is displaced, 40 nM protein, 5 nM probe, read-out: CRBN AC50 [μM] Format 2a.

Sequence of CRBN (Q96SW2 whole entry): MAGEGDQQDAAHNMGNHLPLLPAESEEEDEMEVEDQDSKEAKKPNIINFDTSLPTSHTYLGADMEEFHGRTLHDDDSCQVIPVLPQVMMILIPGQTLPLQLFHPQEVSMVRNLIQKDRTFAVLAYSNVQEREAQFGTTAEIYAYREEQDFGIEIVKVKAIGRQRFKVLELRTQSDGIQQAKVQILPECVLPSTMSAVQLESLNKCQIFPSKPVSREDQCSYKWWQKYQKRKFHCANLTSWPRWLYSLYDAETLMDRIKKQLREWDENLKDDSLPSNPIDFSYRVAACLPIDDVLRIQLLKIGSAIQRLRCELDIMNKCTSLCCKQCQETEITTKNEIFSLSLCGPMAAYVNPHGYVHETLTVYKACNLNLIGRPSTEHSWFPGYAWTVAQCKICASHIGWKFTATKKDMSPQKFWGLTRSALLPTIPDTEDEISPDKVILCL
T1 sequence (Q06187 whole entry): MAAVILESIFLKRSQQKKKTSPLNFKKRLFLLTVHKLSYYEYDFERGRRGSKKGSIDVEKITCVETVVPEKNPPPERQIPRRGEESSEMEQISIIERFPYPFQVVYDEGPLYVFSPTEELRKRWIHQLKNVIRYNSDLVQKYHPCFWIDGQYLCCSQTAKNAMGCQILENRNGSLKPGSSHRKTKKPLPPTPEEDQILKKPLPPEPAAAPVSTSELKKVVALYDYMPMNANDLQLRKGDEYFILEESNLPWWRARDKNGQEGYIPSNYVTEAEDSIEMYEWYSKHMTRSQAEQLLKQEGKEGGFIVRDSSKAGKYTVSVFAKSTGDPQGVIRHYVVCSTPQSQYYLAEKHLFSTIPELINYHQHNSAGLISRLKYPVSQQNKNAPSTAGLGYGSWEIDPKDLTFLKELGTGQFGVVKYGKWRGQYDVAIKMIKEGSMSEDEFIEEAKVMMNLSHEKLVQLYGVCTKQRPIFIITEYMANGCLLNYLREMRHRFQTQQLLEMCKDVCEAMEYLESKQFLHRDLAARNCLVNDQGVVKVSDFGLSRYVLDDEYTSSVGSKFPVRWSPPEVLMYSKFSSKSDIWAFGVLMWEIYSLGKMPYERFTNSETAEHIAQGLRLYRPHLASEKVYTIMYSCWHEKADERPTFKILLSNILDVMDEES

Consider `O=C1CCN(Cc2ncc(Br)cn2)C(=O)N1` [ILB-90, 1-((5-bromopyrimidin-2-yl)methyl)dihydropyrimidine-2,4(1H,3H)-dione], for which the AC50 at CRBN was over 50 µM. For the same compound, the “CRBN Amax* (% at 50 μM) Format 2a” value on CRBN (45 min) was found to be 40%. As for `O=C1CCN(Cc2nc(C(=O)O)cs2)C(=O)N1` [ILB-87, 2-((2,4-dioxotetrahydropyrimidin-1(2H)-yl)methyl)thiazole-4-carboxylic acid], at CRBN, the activity was half-maximal at 5.34 µM (AC50). As to `CCOC(COc1ccc(N2CCC(=O)NC2=O)c(Cl)c1)OCC` [ILB-61, 1-(2-chloro-4-(2,2-diethoxyethoxy)phenyl)dihydropyrimidine-2,4(1H,3H)-dione], at CRBN (setting [1]), the AC50 is 3.44 µM. On CRBN, `Cn1cc(Br)c(CN2CCC(=O)NC2=O)n1` [ILB-85, 1-((4-bromo-1-methyl-1H-pyrazol-3-yl)methyl)dihydropyrimidine-2,4(1H,3H)-dione] gave an AC50 of over 50 µM. For the same compound, on CRBN (45 min), the “CRBN Amax* (% at 50 μM) Format 2a” value was found to be 47%. `NCCC#Cc1ccc(N2CCC(=O)NC2=O)cc1` [ILB-44, 1-(4-(4-aminobut-1-yn-1-yl)phenyl)dihydropyrimidine-2,4(1H,3H)-dione]: the half-maximal activity concentration (AC50) at CRBN (setting [1]) came out at 5.43 µM.

`Cc1cc(O)ccc1N1CCC(=O)NC1=O` [ILB-13, 1-(4-hydroxy-2-methylphenyl)dihydropyrimidine-2,4(1H,3H)-dione] yielded an AC50 on CRBN of 2.42 µM. Regarding “1-((4-bromo-1H-pyrazol-5-yl)methyl)dihydropyrimidine-2,4(1H,3H)-dione [ILB-88]”, the half-maximal activity concentration (AC50) on CRBN (setting [1]) was over 50 µM. Moreover, the “CRBN Amax* (% at 50 μM) Format 2a” value at CRBN was determined as 37%. Compound `O=C(O)CCn1cc(N2CCC(=O)NC2=O)cn1` [ILB-66, 3-(4-(2,4-Dioxotetrahydropyrimidin-1(2H)-yl)-1H-pyrazol-1-yl)propanoic acid] yielded a half-maximal activity concentration (AC50) at CRBN of over 50 µM. Further, the “CRBN Amax* (% at 50 μM) Format 2a” value at CRBN (45 min) is listed as 46%. Regarding `O=C(O)COc1ccc(Cl)c(N2CCC(=O)NC2=O)c1` [ILB-17, 2-(4-Chloro-3-(2,4-dioxotetrahydropyrimidin-1(2H)-yl)phenoxy)acetic acid], on CRBN (setting [1]), the half-maximal activity concentration (AC50) was 3.41 µM. As for `O=C1CCN(c2ccc(C#CCCCI)cc2)C(=O)N1` [ILB-39, 1-(4-(5-iodopent-1-yn-1-yl)phenyl)dihydropyrimidine-2,4(1H,3H)-dione], at CRBN (setting [1]), the AC50 came to 3.15 µM.

For the compound `CCOC(=O)c1cnc(C)c(N2CCC(=O)NC2=O)c1` [ILB-82, ethyl 5-(2,4-dioxotetrahydropyrimidin-1(2H)-yl)-6-methylnicotinate], the half-maximal activity concentration (AC50) at CRBN (setting [1]) was 29.8 µM.

On to `O=C(O)Cn1cc(N2CCC(=O)NC2=O)cn1` [ILB-65, 2-(4-(2,4-Dioxotetrahydropyrimidin-1(2H)-yl)-1H-pyrazol-1-yl)acetic acid], for which the activity on CRBN was half-maximal at 26.1 µM (AC50). In the case of `O=C1CCN(Cc2cc(Cl)ccn2)C(=O)N1` [ILB-91, 1-((4-chloropyridin-2-yl)methyl)dihydropyrimidine-2,4(1H,3H)-dione], the activity at CRBN was half-maximal at 5.22 µM (AC50). For the compound `O=C1CCN(Cc2cc(C(F)(F)F)[nH]n2)C(=O)N1` [ILB-84, 1-((5-(trifluoromethyl)-1H-pyrazol-3-yl)methyl)dihydropyrimidine-2,4(1H,3H)-dione], half-maximal activity at CRBN (AC50) was put at 33.3 µM. Take `Cc1c(NC(=O)N2C[C@H](CC(C)C)[C@@H](O)C2)cc(F)cc1-c1ncnc2[nH]c(-c3ccc(CN4CCN(CCOc5ccc(N6CCC(=O)NC6=O)cc5)CC4)cc3)cc12` [Compound 32, (3R,4S)—N-(3-(6-(4-((4-(2-(4-(2,4-Dioxotetrahydropyrimidin-1(2H)-yl)phenoxy)ethyl)piperazin-1-yl)methyl)phenyl)-7H-pyrrolo[2,3-d]pyrimidin-4-yl)-5-fluoro-2-methylphenyl)-3-hydroxy-4-isobutylpyrrolidine-1-carboxamide]: at BTK (% protein remaining at the concentration at which maximum degradation is seen, HEK293A), the “BTK degradation Amax” value is recorded as 16.7%. This compound yielded a DC50 on BTK (concentration at which 50% maximal degradation was observed, HEK293A BTK-GFP sensor cells) of 1.4 nM. Take `O=C1CCN(c2cc(C(=O)O)ccc2O)C(=O)N1` [ILB-22, 3-(2,4-Dioxotetrahydropyrimidin-1(2H)-yl)-4-hydroxybenzoic acid]: on CRBN (setting [1]), the AC50 was determined as 0.69 µM. `Nc1ncc(Br)cc1CN1CCC(=O)NC1=O` [ILB-93, 1-((2-amino-5-bromopyridin-3-yl)methyl)dihydropyrimidine-2,4(1H,3H)-dione] displayed an AC50 at CRBN of 10.9 µM. Regarding `C[Si](C)(C)CCOCN1C(=O)CCN(Cc2cccc(C=O)c2)C1=O` [ILB-10, 3-((2,4-Dioxo-3-((2-(trimethylsilyl)ethoxy)methyl)tetrahydropyrimidin-1(2H)-yl)methyl)benzaldehyde], the concentration at half-maximal activity (AC50) at CRBN (setting [1]) was over 50 µM. On CRBN (45 min), the “CRBN Amax* (% at 50 μM) Format 2a” value worked out at 0%. `COc1ccc(C(=O)O)cc1CN1CCC(=O)NC1=O` [ILB-9, 3-((2,4-Dioxotetrahydropyrimidin-1(2H)-yl)methyl)-4-methoxybenzoic acid] returned an AC50 on CRBN of over 50 µM. On CRBN (45 min), the “CRBN Amax* (% at 50 μM) Format 2a” value was 1%. Take `O=C1CCN(Cc2cc(Br)ccn2)C(=O)N1` [ILB-92, 1-((4-bromopyridin-2-yl)methyl)dihydropyrimidine-2,4(1H,3H)-dione]: at CRBN, the AC50 stood at 1.85 µM.

In the case of `O=C1CCN(c2ccc(C#CCN3CCC(n4cc(Br)cn4)CC3)cc2)C(=O)N1` [ILB-49, 1-(4-(3-(4-(4-bromo-1H-pyrazol-1-yl)piperidin-1-yl)prop-1-yn-1-yl)phenyl)dihydropyrimidine-2,4(1H,3H)-dione], the AC50 at CRBN (setting [1]) turned out to be 3.36 µM. On to `NCCN1CCC(Oc2ccc(N3CCC(=O)NC3=O)cc2)CC1` [ILB-68, 1-(4-((1-(2-aminoethyl)piperidin-4-yl)oxy)phenyl)dihydropyrimidine-2,4(1H,3H)-dione], for which the AC50 on CRBN (setting [1]) came out at 4.7 µM. On CRBN, `O=C1CCN(Cc2sccc2Br)C(=O)N1` [ILB-83, 1-((3-bromothiophen-2-yl)methyl)dihydropyrimidine-2,4(1H,3H)-dione] registered a concentration at half-maximal activity (AC50) of 45.6 µM. For the compound `O=C1CCN(Cc2ccncc2Br)C(=O)N1` [ILB-89, 1-((3-bromopyridin-4-yl)methyl)dihydropyrimidine-2,4(1H,3H)-dione], on CRBN, the activity was half-maximal at 16.7 µM (AC50). `O=C1CCN(Cc2cccn(C3CCN(C(=O)OCc4ccccc4)CC3)c2=O)C(=O)N1` [ILB-94, Benzyl-4-(3-((2,4-dioxotetrahydropyrimidin-1(2H)-yl)methyl)-2-oxopyridin-1(2H)-yl)piperidine-1-carboxylate] yielded an AC50 on CRBN of 4.95 µM.

These data come from patent publication US20220387602A1, “BIFUNCTIONAL DEGRADERS AND THEIR METHODS OF USE” (NOVARTIS AG, priority 2019, published 2022).
